Experimental findings from ChEMBL document CHEMBL1137325, “Multitarget-directed drug design strategy: a novel molecule designed to block epidermal growth factor receptor (EGFR) and to exert proapoptotic effects” (J Med Chem, 2006) are described below.

Assay [1] deals with A-431. Description: Antiproliferative activity against human A431 cells after 72 hrs by MTT assay. Conditions: A-431, 72 h. (In general: Formazan colour is commonly taken as a measure of viable cells.)
The target of assay [2] is Epidermal growth factor receptor (Homo sapiens, UniProt P00533). The assay is described as follows: Inhibition of EGFR tyrosine kinase activity.
Chain of Epidermal growth factor receptor (P00533 whole entry): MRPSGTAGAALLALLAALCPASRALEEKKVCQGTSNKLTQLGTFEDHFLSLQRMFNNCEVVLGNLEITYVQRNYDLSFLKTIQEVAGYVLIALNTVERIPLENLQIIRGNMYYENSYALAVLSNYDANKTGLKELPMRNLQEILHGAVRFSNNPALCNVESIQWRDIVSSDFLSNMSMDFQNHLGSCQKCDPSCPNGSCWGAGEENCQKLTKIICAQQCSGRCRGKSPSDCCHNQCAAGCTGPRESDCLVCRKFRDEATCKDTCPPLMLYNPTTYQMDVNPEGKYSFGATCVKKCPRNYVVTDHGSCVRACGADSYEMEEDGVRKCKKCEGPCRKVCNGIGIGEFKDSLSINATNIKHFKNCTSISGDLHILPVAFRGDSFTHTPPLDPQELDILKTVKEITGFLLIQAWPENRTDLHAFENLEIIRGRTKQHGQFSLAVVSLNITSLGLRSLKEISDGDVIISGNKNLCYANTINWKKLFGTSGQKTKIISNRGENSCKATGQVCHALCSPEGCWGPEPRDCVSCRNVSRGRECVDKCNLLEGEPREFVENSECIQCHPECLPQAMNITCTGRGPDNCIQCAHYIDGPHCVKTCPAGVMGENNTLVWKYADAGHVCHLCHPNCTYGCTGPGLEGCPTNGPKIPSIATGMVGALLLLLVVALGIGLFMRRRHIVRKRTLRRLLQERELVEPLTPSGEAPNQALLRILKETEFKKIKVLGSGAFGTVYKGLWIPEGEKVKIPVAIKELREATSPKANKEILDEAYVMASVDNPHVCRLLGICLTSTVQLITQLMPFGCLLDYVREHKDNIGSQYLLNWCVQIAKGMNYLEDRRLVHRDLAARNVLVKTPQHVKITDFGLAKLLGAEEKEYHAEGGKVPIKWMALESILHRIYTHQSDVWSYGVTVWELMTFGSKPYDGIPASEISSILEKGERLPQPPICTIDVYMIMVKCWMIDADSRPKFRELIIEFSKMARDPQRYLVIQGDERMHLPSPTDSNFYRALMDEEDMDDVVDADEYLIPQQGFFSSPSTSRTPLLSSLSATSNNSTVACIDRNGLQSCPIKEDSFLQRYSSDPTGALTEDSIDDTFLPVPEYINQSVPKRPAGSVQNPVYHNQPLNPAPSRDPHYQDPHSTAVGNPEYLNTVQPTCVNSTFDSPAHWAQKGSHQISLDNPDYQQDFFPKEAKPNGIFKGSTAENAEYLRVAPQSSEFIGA
For assay [3], the system named is A-431. The assay is described as follows: Induction of necrosis in human A431 cells measured as increase of LDH release. In kind it is functional, cell-based. For orientation: LDH leaks from cells whose membrane has failed.
For assay [4], the system named is A-431. The assay is described as follows: Reversibility of antiproliferative activity against human A431 cells after recovery for 68 hrs in presence of 100 uM DTT by MTT assay. Conditions: A-431, 68 h.
The subject of assay [5] is A-431. The assay is described as follows: Reversibility of antiproliferative activity against human A431 cells after recovery for 68 hrs by MTT assay. Conditions: A-431, 68 h.
Assay [6] deals with A-431. Description: Induction of apoptosis in human A431 cells measured as increase in DNA fragmentation. In kind it is functional, cell-based.
In assay [7] the test system is A-431. The assay is described as follows: Reversibility of antiproliferative activity against human A431 cells after recovery for 68 hrs in presence of 50 uM DTT by MTT assay. Conditions: A-431, 68 h.

Each structure is given as a SMILES string. Calls of active or inactive are those of the source. The rule behind the calls is not given here.

As usually defined, the IC50 is the concentration that inhibits the measured activity by half. For `O=C(CCCCC1CCSS1)Nc1ccc2ncnc(Nc3cccc(Br)c3)c2c1` (stereo not drawn), the 50% inhibitory concentration (IC50) in the assay on A-431 [1] was 21.6 µM; in assay [2], over 3 µM.

Consider `COc1cc2ncnc(Nc3cccc(Br)c3)c2cc1OC`, for which the outcome with A-431 [3] was inactive.

As for `C=CC(=O)Nc1ccc2ncnc(Nc3cccc(Br)c3)c2c1`, the outcome in the assay on A-431 [3] was inactive.

For `O=C(Nc1ccc2ncnc(Nc3cccc(Br)c3)c2c1)C1CCSS1` (stereo not drawn), the IC50 was determined as 28.1 µM in the assay with A-431 [4]; 9.23 µM in the assay on A-431 [5]; 22.4 µM in the assay on A-431 [7]; 7.9 µM in the assay on A-431 [1]; 0.06 µM in assay [2]. Also, the outcome with A-431 [3] was inactive. Moreover, the Activity entry with A-431 [6] is “Dose-dependent effect”.

As to `O=C(CC1CCSS1)Nc1ccc2ncnc(Nc3cccc(Br)c3)c2c1` (stereo not drawn), the IC50 is 13.7 µM in the assay on A-431 [1] and over 3 µM in assay [2].
